Measurements: patent US9095565B2, “Methods for treating blood disorders” (Phoenicia Biosciences, Inc., priority 2006, dated 2015)

Legend:
[1] = system: γ-globin mRNA; experiment: γ-globin mRNA by RT-PCR in erythroid colonies cultured from cord blood; assay type: cell-based, human; details: for Concentration required: increase in fetal globin mRNA, erythroid colonies from cord blood; for No. of Positive responses: positive cultures/cultures tested; for fetal globin induction: 3 cultures
Description: γ-globin mRNA was analyzed in control and treated erythroid colonies cultured from cord blood, by RT-PCR.

[2] = system: Erythroid colonies (BFU-E); experiment: Experiment 2: erythroid colonies (BFU-E) cultured from patients with beta thalassemia; assay type: cell-based, human; details: optimal panel of growth factors
Description: (§1) Erythroid burst-forming units (BFU-E) (erythroid progenitors) and colony-forming units granulocyte-macrophage (CFU-GM) (myeloid colonies) were cultured in semi-solid or in two-phase suspension media, with or without hematopoietic growth factors at high levels (e.g., erythropoietin at 3 U/ml) or reduced levels (BFU-E cell proliferation was evaluated by enumeration in colonies developing in the presence of reduced amounts of erythropoietin (0.5 U/ml) rather than 3 U (or 3000 mU)/ml, which is standard for these experimental systems), from cord blood or the peripheral blood of several types of humans. Experiments were carried out on samples derived from 1) β-thalassemia patients who expressed variable levels of fetal globin at baseline (and in untreated control cultures) and represent a variety of potential individual responses, 2) from normal umbilical cord blood samples, which express 40-50% fetal globin at baseline (and in untreated control cultures), 3) from CD34+ cells isolated from normal adult peripheral blood, which expressed low levels of fetal globin in untreated control cultures and at baseline; and 4) from peripheral blood of patients with sickle cell disease who were receiving treatment with hydroxyurea. These biological samples provide a range of potential difficulty in stimulating fetal globin expression in human patients.
Erythroid colonies were cultured from patients with beta thalassemia, either without any test compounds (Control), only an optimal panel of hematopoietic growth factors, or with one of the test compounds M, P, T, 2-methyl-1-benzofuran-4-carboxylic acid, V, W, X, Y, AK, AC, or AI. […] Colony numbers were increased above the control cultures (% BFU-E/Control) by anywhere from 25% to 230%. Each of the listed test compounds was tested in at least 5 different patients' blood and the differences were statistically significant.

[3] = system: cells expressing fetal globin (F-cells); experiment: Experiment 1: proportion of F-cells in hematopoietic colonies by FACScan; assay type: cell-based, human; details: same low concentrations as for fetal globin mRNA induction
Description: as §1
Hematopoietic colonies were enumerated with or without (+/−) the test compounds, and compared to colonies which developed in the presence of hematopoietic growth factors alone from the same subject (untreated control colonies), and proportions of cells expressing fetal globin (F-cells) were analyzed by FACScan analysis.

[4] = system: Erythroid colonies; experiment: Example 7: erythroid colonies cultured with low Erythropoietin (0.5 U/ml) and compound Y enantiomers; assay type: cell-based, human
Description: The proliferative activity of compound Y—S enantiomer was tested in vitro in erythroid colonies cultured from peripheral blood of 3 sources of individuals: sickle cell anemia patients who were taking Hydroxyurea and have suppression of their endogenous erythropoiesis, a normal adult subject, and two cord blood samples. The erythroid cultures were established with low concentrations of Erythropoietin (0.5 U/ml) alone and with one or the other enantiomer of compound Y or the racemic mixture, or with high concentrations of EPO (3 Units/ml, =3000 mU/ml, 100-fold the normal physiologic concentration).

[5] = system: γ globin promoter; experiment: β/γ-globin promoter driven reporter gene assay; assay type: cell-based; details: Table 2
[6] = system: BFU-E; experiment: BFU-E cultured from cord blood; assay type: cell-based, human
Description: as §1
In a related study, BFU-E cultured from cord blood, was tested with or without compound M, P, R, T, W, Y, Z, AI, F, or 3-(5-chlorothien-3-yl)acrylic acid.

[7] = system: γ-globin gene; experiment: Related study: relative in vitro γ-globin gene induction; assay type: cell-based
Description: (§2) In a related study, the relative luciferase reporter gene induction, γ-globin gene induction, and F cell production was tested for several of the candidate compounds. The relative in vitro γ-globin gene reporter stimulation for the tested compounds was as follows: compound P>M>W=R=Y. The relative in vitro γ-globin gene induction for the tested compounds was as follows: P>R=M>Y>W>. The relative in vitro F-cell production was as follows: W>Y>R>M>P. The relative potency for F-cell production was as follows: R>M>Y>P>W.

[8] = system: γ-globin gene reporter; experiment: Related study: relative luciferase reporter gene induction; assay type: cell-based
Description: as §2

[9] = system: F-cell; experiment: Related study: in vitro F cell production; assay type: cell-based
Description: as §2

[10] = system: myeloid colonies; experiment: Experiment 3: myeloid colonies in cord blood cultured without added growth factors; assay type: cell-based, human; details: no added growth factors
Description: as §1
Control colonies were established in cultures with no added growth factors to support myelopoiesis, in Iscove's Modified Dulbecco's Media (IMDM) methylcellulose media with charcoal-absorbed fetal bovine serum, beta mercaptoethanol, BSA.

[11] = system: fetal globin mRNA; experiment: Fetal globin induction in phlebotomized anemic baboons; assay type: in vivo, baboon; details: Baboon 5002, 50 mg/kg
Description: Juvenile baboons were catheterized with venous and arterial catheters, and were phlebotomized a set amount of blood daily to maintain anemia with a hemoglobin level of 7.0-7.5 g/dl, from a baseline normal hemoglobin level of (12-13 g/dl). Normal saline was infused to replace the amount of blood withdrawn. This degree of phlebotomy exchanges the blood volume every 10-20 days.
Fetal globin mRNA was analyzed at baseline anemia before and following administration of test compounds. Globin chain protein synthesis confirmed the mRNA findings.
Following establishment of the stable level of anemia, a test compound was administered once/day, either intravenously or orally, and blood was withdrawn through the arterial catheter for analysis of globin mRNA or for analysis of the test compound in the plasma by HPLC-MS. Pharmacokinetic profiles were established from the plasma levels and oral bioavailability (comparing area under the curve between IV and oral plasma levels) was determined for the test compounds.
In anemic Baboon 5002, baseline fetal globin mRNA, assayed by RNAse protection, was 26% of non-alpha globin. With treatment with compound Y at 5 mg/kg/dose, fetal globin mRNA increased to 48% of non-alpha globin, an 85% increase over the baseline level. Treatment with compound AK at 50 mg/kg induced a 51% fetal globin mRNA increase, a 96% increase over the baseline level. […] The human equivalent dose is 20% of these doses, or 1 mg/kg, 10 mg/kg, or 8 mg/kg respectively. Thus, these 3 compounds are highly suitable for pharmaceutical compositions at doses that human patients can readily tolerate.

With Cc1cc2c(C(=O)O)cccc2o1 [2-methyl-1-benzofuran-4-carboxylic acid] the “Concentration required” value [1] was 5 µM, the “No. of Positive responses” value [1] was 6/6 and the “number of erythroid colonies compared to matched control cultures” value (from here on “number … compared to matched control cultures”) [2] was “increased the number of colonies”. The “proportion of F-cells above the percentage in untreated controls” value [3] was “significant increases”.

For “EPO: Erythropoietin, high concentration 3 Units/ml in erythroid cultures”, the “mean more colonies than cultures with racemic mix or R enantiomer in low EPO” value ([4]; high EPO 3 Units/ml) was 35% and the “range of more colonies than cultures with racemic mix or R enantiomer in low EPO” value ([4]; high EPO 3 Units/ml) was 25-45%.

With O=C(O)C1CCc2snnc2C1 (stereo not drawn) [AB] the “% γ globin promoter induction (above untreated control)” value (from here on “% γ globin promoter induction”) [5] was “** (‘**’ indicates a 100%-200% increase)”.

COc1cc(OC)nc(S[C@@H](C(=O)O)C(C)C)n1 [Y + R] was tested, and the “fetal globin induction” value [1] was “demonstrated fetal globin inducing action”, the “Concentration required” value [1] was 5 µM and the “No. of Positive responses” value [1] was 2/3. The “erythroid cell proliferation” value [4] was “does not stimulate cell proliferation”.

With O=C(O)/C=C/c1ccnc2ccccc12 [F] the “proportion of F-cells above the percentage in untreated controls” value [3] was “significant increases”, the “% γ globin promoter induction” value [5] was “*** (‘***’ indicates an over 200% increase of γ globin promoter induction over untreated controls)” and the “numbers of BFU-E colonies compared to controls” value (“numbers … compared to controls” for short) [6] was “increased numbers of colonies”.

With Cc1cc(SCC(=O)O)cs1 [AH] the “% γ globin promoter induction” value [5] was “** (‘**’ indicates a 100%-200% increase)”.

With O=C(O)Cc1[nH]c(=O)cc(O)c1C(=O)O [S] the “% γ globin promoter induction” value [5] was “** (‘**’ indicates a 100%-200% increase)”.

For O=C(O)CN1C(=O)S/C(=C/c2ccccc2O)C1=O [K], the “% γ globin promoter induction” value [5] was “* (‘*’ indicates a 80-100% increase)”.

In the case of O=C1CSc2ccc(C(=O)O)cc2N1 [T], the “number … compared to matched control cultures” value [2] is reported as “increased the number of colonies”, the “proportion of F-cells above the percentage in untreated controls” value [3] is reported as “significant increases” and the “% γ globin promoter induction” value [5] is reported as “** (‘**’ indicates a 100%-200% increase)”. The “numbers … compared to controls” value [6] was “increased numbers of colonies”.

Cn1cnnc1SCC(=O)O [AD] was tested, and the “% γ globin promoter induction” value [5] was “** (‘**’ indicates a 100%-200% increase)”.

For O=C(O)Cn1cc(Cl)c([N+](=O)[O-])n1 [AC], the “number … compared to matched control cultures” value [2] was “increased the number of colonies” and the “% γ globin promoter induction” value [5] was “** (‘**’ indicates a 100%-200% increase)”.

For O=C1CC(C(=O)O)Cc2ccsc21 (stereo not drawn) [AG], the “% γ globin promoter induction” value [5] was “** (‘**’ indicates a 100%-200% increase)”.

With COc1ccc(C(N)CC(=O)O)cc1OC (stereo not drawn) [R] the “relative in vitro γ-globin gene induction (rank order)” value [7] was “P>R=M>Y>W”, the “proportion of F-cells above the percentage in untreated controls” value [3] was “significant increases” and the “relative in vitro γ-globin gene reporter stimulation (rank order)” value [8] was “P>M>W=R=Y”. For the same compound, the “% γ globin promoter induction” value [5] was “*** (‘***’ indicates an over 200% increase of γ globin promoter induction over untreated controls)”, the “relative in vitro F-cell production (rank order)” value [9] was “W>Y>R>M>P” and the “relative potency for F-cell production (rank order)” value [9] was “R>M>Y>P>W”. For the same compound, the “numbers … compared to controls” value [6] was “increased numbers of colonies”.

O=C(O)CCC1(c2ccc(Cl)s2)CCCCC1 [AJ] was tested, and the “% γ globin promoter induction” value [5] was “** (‘**’ indicates a 100%-200% increase)”.

For O=C(O)CSc1nnc(S)s1 [AE], the “% γ globin promoter induction” value [5] was “** (‘**’ indicates a 100%-200% increase)”.

For O=C(CC1(C(=O)O)CCCCC1)c1cccs1 [AF], the “% γ globin promoter induction” value [5] was “* (‘*’ indicates a 80-100% increase)”.

In the case of COc1cccc(SCC(=O)O)c1 [V], the “Concentration required” value [1] is reported as 5 µM, the “No. of Positive responses” value [1] is reported as 6/6 and the “number … compared to matched control cultures” value [2] is reported as “increased the number of colonies”. For the same compound, the “proportion of F-cells above the percentage in untreated controls” value [3] was “significant increases” and the “% γ globin promoter induction” value [5] was “** (‘**’ indicates a 100%-200% increase)”.

In the case of CCOc1ccc(C(=O)O)cc1 [AI], the “production of myeloid colonies compared to untreated control” value [10] is reported as “stimulated production of myeloid colonies”, the “number … compared to matched control cultures” value [2] is reported as “increased the number of colonies” and the “% γ globin promoter induction” value [5] is reported as “** (‘**’ indicates a 100%-200% increase)”. For the same compound, the “numbers … compared to controls” value [6] was “increased numbers of colonies”.

With O=C(O)c1cccc(Cn2cc(Cl)cn2)c1 [Z] the “proportion of F-cells above the percentage in untreated controls” value [3] was “significant increases”, the “% γ globin promoter induction” value [5] was “** (‘**’ indicates a 100%-200% increase)” and the “numbers … compared to controls” value [6] was “increased numbers of colonies”.

With COc1cc(OC)nc(S[C@H](C(=O)O)C(C)C)n1 [Y − S] the “fetal globin induction” value [1] was “did not induce fetal globin in 2 of (the same) 3 cultures”, the “Concentration required” value [1] was 5 µM and the “No. of Positive responses” value [1] was 1/3. The “erythroid cell proliferation” value [4] was “stimulates erythroid cell proliferation significantly”, the “range of more erythroid colonies than in the racemic mixture” value ([4]; low EPO 0.5 U/ml) was 38-50% and the “mean more erythroid colonies than in the racemic mixture” value ([4]; low EPO 0.5 U/ml, same concentration) was 45%.

O=C(O)C=Cc1csc(Cl)c1 [3-(5-chlorothien-3-yl)acrylic acid] was tested, and the “Concentration required” value [1] was 30 µM, the “proportion of F-cells above the percentage in untreated controls” value [3] was “significant increases” and the “numbers … compared to controls” value [6] was “increased numbers of colonies”.

O=[N+]([O-])c1cc(S(=O)(=O)O)ccc1F [AK] was tested, and the “number … compared to matched control cultures” value [2] was “increased the number of colonies”, the “increase over the baseline level of fetal globin mRNA” value [11] was 96% and the “fetal globin mRNA (% of non-alpha globin)” value ([11]; baseline 26%) was 51%. The “% γ globin promoter induction” value [5] was “** (‘**’ indicates a 100%-200% increase)”.

COc1cc(OC)cc(SC(C(=O)O)C(C)C)c1 (stereo not drawn) [Q] was tested, and the “% γ globin promoter induction” value [5] was “** (‘**’ indicates a 100%-200% increase)”.

With O=C(O)CNc1ccc(SC(F)(F)F)cc1 [N] the “proportion of F-cells above the percentage in untreated controls” value [3] was “significant increases” and the “% γ globin promoter induction” value [5] was “*** (‘***’ indicates an over 200% increase of γ globin promoter induction over untreated controls)”.

O=C(O)c1ccc(-c2ccccc2[N+](=O)[O-])o1 [X] was tested, and the “production of myeloid colonies compared to untreated control” value [10] was “stimulated production of myeloid colonies”, the “number … compared to matched control cultures” value [2] was “increased the number of colonies” and the “proportion of F-cells above the percentage in untreated controls” value [3] was “significant increases”. The “% γ globin promoter induction” value [5] was “** (‘**’ indicates a 100%-200% increase)”.

In the case of COc1cc(OC)cc(Oc2ccccc2C(=O)O)c1 [O], the “% γ globin promoter induction” value [5] is reported as “* (‘*’ indicates a 80-100% increase)”.

O=C(O)Cn1ccc(=O)cc1 [AA] was tested, and the “% γ globin promoter induction” value [5] was “** (‘**’ indicates a 100%-200% increase)”.
